Test results taken from patent publication US8277777B2, “Compound having affinity for amyloid” (Nihon Medi-Physics Co., Ltd., priority 2006, dated 2012).
Read-outs that look alike come from different tables or passages of the source.

Columns and labels:
[1] = test system: Salmonella typhimurium TA100; assay: reverse mutation test (Ames test), TA100; type: cell-based
Experimental: (§1) In order to examine mutagenicity of Compound 1, Compound 2 and Compound 3, reverse mutation test using Salmonella typhimurium TA98 and TA100 (hereinafter referred to as Ames test) was conducted.
(§2) The test was conducted without addition of S9mix and with addition of S9mix. Dimethylsulfoxide was used as a negative control. A positive control was 2-(2-furyl)-3-(5-nitro-2-furyl)acrylamide in case S9mix was not added, and 2-aminoanthracene in case S9 mix was added.
(§3) The amount of each sample to be added to the test plate was 7 dosages (geometric ratio 4) with the maximum dose being 1250 μg/plate for Compound 1, and 7 dosages (geometric ratio 3) with the maximum dose being […] for Compound 2 and Compound 3. After a sample to be examined and a strain (TA98 or TA100), or a sample to be examined, S9mix and the strain were mixed together, the mixture was multilayered using soft agar on a medium of a test plate, and then incubated at 37° C. for 48 hours.

[2] = test system: Salmonella typhimurium TA98; assay: reverse mutation test (Ames test), TA98; type: cell-based
Experimental: as §1, §2, §3

[3] = molecular target: T1, amyloid (aggregated Aβ1-40) (Homo sapiens, UniProt P05067); assay: in vitro amyloid binding test (inhibition of [125I]3′-I-BTA-0 binding); conditions: [125I]3′-I-BTA-0 400 pmol/L, amyloid 1 μmol/L, 0.1% BSA phosphate buffer pH 7.4, 22°C, 3 hours
T1 construct: purchased Peptide Institute, INC
T1 sequence (P05067 672-711 limits assumed): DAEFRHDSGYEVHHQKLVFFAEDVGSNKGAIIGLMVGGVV
Experimental: The resulting samples were placed in each well (about 0.3 mL in volume) of a 96-well microplate.
The measured radioactivity level was defined as the background radioactivity level, and used in the calculation of the inhibition ratio (hereinafter referred to as BG).
(9) Using the radioactivity levels measured above in (7) and (8), the inhibition ratio was determined by the following formula (1).
A graph in which values converted by probit transformation from the obtained inhibition ratios were plotted relative to logarithms of concentrations of compounds for evaluation was prepared to obtain an approximate straight line by the least square method. Using the line, the concentration of each compound for evaluation was determined, at which the radioactivity level is half of the level of the sample free from each compound for evaluation, and was defined as a 50% inhibition concentration of each compound (hereinafter referred to as IC50% value).

[4] = test system: Salmonella typhimurium TA98 and TA100; assay: Ames test, overall judgment; type: cell-based; conditions: regardless of addition of S9mix
Experimental: as §1, §2, §3

[5] = [125I]-labeled, normal mice, cited from earlier work; for transfer into brain: 2 minutes after administration
[6] = [11C]-labeled, rats; cited from earlier work
[7] = transferability into brain and clearance; conditions: rats, intravenous injection
Experimental: Using Compound 4, a time course change of radioactive accumulation in brain of male Wistar rats (7-week old) was measured.
The rats were sacrificed by bleeding from abdominal artery, and brains were removed and subjected to measurement of radioactivity (hereinafter referred to as A in this Example) with an autowell gamma system (Type: ARC-301B manufactured by Aloka Co., Ltd.) and further subjected to measurement of mass of brains 2, 5, 30 and 60 minutes after the injection. Also, radioactivity (hereinafter referred to as B in this Example) of 0.05 mL of a 1000-fold diluted solution of the injected solution was measured in the same manner as above. Using these measurement results, radioactive distributions per unit weight of brain (% ID/g) at the respective time points were calculated in accordance with the following formula (5). Three animals were used for experiment at the respective time points.

[8] = partition coefficient based on the octanol extraction method; type: physicochemical; conditions: octanol / 10 mmol/L phosphate buffer (pH 7.4), radioactivity
Experimental: Partition coefficients based on the octanol extraction method (hereinafter referred to as log Poctanol) were measured, which are generally used as an indicator of permeability of compounds through the blood-brain barrier (hereinafter referred to as BBB).
To 2 mL of octanol, 10 μL of a solution containing Compound 4 (Example 5) and 2 mL of a 10 mmol/L phosphate buffer (pH 7.4) were added and stirred for 30 seconds. After the mixture was centrifuged (2000 rpm×60 min.) with a low-speed centrifuge (model: […] CT4D manufactured by Hitachi Koki Co., Ltd.), the octanol layer and the water layer were sampled each in an amount of 1 mL, and subjected to measurement of radioactivity with an autowell gamma system (manufactured by Aloka, Type: ARC-301B). Using the obtained radioactivity, log Poctanol was calculated in accordance with the equation (2).

[9] = molecular target: T2, intracerebral amyloid (aggregated Aβ1-42 injected into amygdaloid nucleus) (Homo sapiens, UniProt P05067); assay: confirmation of imaging of amyloid in brain (autoradiogram of brain slice); type: in vivo, male Wistar rat; conditions: rat, tail vein, brain removed 30 minutes after the injection
T2 construct: dissolving Aβ1-42 (Wako Pure Chemical Industries, Ltd.) in a phosphate buffer (pH 7.4); purchased Wako Pure Chemical Industries, Ltd
T2 sequence (P05067 672-713): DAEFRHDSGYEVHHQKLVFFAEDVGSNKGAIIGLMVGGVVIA
Experimental: The following experiment was carried out in order to examine whether amyloid in brain can be imaged by the compound of the present invention.
(1) A 1 mg/mL suspension of aggregated Aβ (hereinafter referred to as amyloid suspension in this Example) was obtained by dissolving Aβ1-42 (Wako Pure Chemical Industries, Ltd.) in a phosphate buffer (pH 7.4), followed by shaking at 37° C. for 72 hours.
(2) 2.5 μL (corresponding to […]) of the amyloid suspension was injected into an amygdaloid nucleus on one side of a male Wistar rat (7-week old). As a control, 2.5 μL of a phosphate buffered physiological saline solution (pH 7.4) was injected into an amygdaloid nucleus on the other side of the rat. The rats were examined 3 days after the injection of the amyloid suspension and the phosphate buffered physiological saline solution.
(3) Compound 4 was dissolved in a 10 mg/mL ascorbic acid-containing physiological saline solution to obtain a sample solution (84 MBq/mL in radioactivity concentration). This solution was injected into the rat through the tail vein (dosage: 0.5 mL, dosed radioactivity: 42 MBq equivalent).
(4) Brain was removed 30 minutes after the injection to prepare a brain slice of 10 μm in thickness with a microtome (type: CM3050S, manufactured by LEICA). […]

[10] = partition coefficient based on HPLC; type: physicochemical; conditions: mobile phase 50 mM triethylamine phosphate (pH 7.2)/acetonitrile=40/60, formula (4)
Experimental: The partition coefficient by HPLC (hereinafter referred to as log PHPLC) was measured by the following method.
First, compounds for evaluation shown in Table 5 were dissolved at a concentration of 1 mg/mL in methanol containing 10% dimethylsulfoxide to prepare sample solutions. One μL of the sample solution was subjected to HPLC analysis under the following conditions to determine the elution time (tO) of the solvent and the elution time (tR) of each compound.
Column: Prodigy ODS (3) (product name; manufactured by phenomenex; size: 4.6×250 mm)
Mobile phase: a mixed solution of 50 mM triethylamine phosphate (pH 7.2)/acetonitrile=40/60
Detector: ultraviolet visible absorptiometer (detection wavelength: 282 nm)
Using the obtained tO and tR, the retention factor (hereinafter referred to as K′HPLC value) of each compound for evaluation was determined according to the calculation formula (3). K′HPLC=(tR−t0)/t0 (3) […]
Using K′HPLC obtained for each compound for evaluation, the log PHPLC value of each compound for evaluation was determined according to the above calculation formula (4).

amyloid = conditions: [125I]-labeled; cited from earlier work
[11] = TA100, without addition of S9mix
[12] = TA98, without addition of S9mix

For `COc1ccc2nc(-c3ccc(OCCCF)cc3)cn2c1` [Compound 1, 2-[4′-(3″-fluoropropoxy)phenyl]-6-methoxyimidazo[1,2-a]pyridine], the Mutagenicity ([1]; TA100, with addition of S9mix) was “Negative”, the Mutagenicity [1, 11] was “Negative” and the Mutagenicity ([2]; TA98, with addition of S9mix) was “Negative”. For the same compound, the Mutagenicity [2, 12] was “Negative”, the IC50 [3] was 0.0011 µM and the Ames test judgment [4] was “negative”.
For `CN(C)c1ccc(-c2nc3ccc(I)cc3o2)cc1` [IBOX, 6-iodo-2-[4′-(N,N-dimethylamino)phenyl]benzoxazole], the transfer into brain [5] is listed as “transferred into brain” and the “clearance from normal tissues” value [5] is listed as “insufficient in clearance from normal tissues”.
In the case of `Nc1c(/N=N/c2ccc(-c3ccc(/N=N/c4cc(S(=O)(=O)O)c5ccccc5c4N)cc3)cc2)cc(S(=O)(=O)O)c2ccccc12` [Congo Red, reference compound], the IC50 [3] is reported as > 1 µM.
For `CNc1ccc(/C=C/c2ccc(O)cc2)cc1` [SB-13, (E)-4-methylamino-4′-hydroxystilbene], the “clearance from normal tissues” value [6] is listed as “it cannot be said that the clearance is sufficiently fast”.
With `Oc1ccc2nc(-c3ccc(OCCCF)cc3)cn2c1` [Compound 2, 2-[4′-(3″-fluoropropoxy)phenyl]-6-hydroxyimidazo[1,2-a]pyridine] the Mutagenicity ([1]; TA100, with addition of S9mix) was “Negative”, the Mutagenicity [1, 11] was “Negative” and the Mutagenicity ([2]; TA98, with addition of S9mix) was “Negative”. For the same compound, the Mutagenicity [2, 12] was “Negative”, the IC50 [3] was 0.0305 µM and the Ames test judgment [4] was “negative”.
In the case of `CN(C)c1ccc(-c2cn3cc([123I])ccc3n2)cc1` [[^123I]-IMPY, reference compound], the “Radioactive concentration per unit weight in brain” value ([7]; after 2 min.) is reported as 1.02 % ID/g, the “Radioactive concentration per unit weight in brain” value ([7]; after 5 min.) is reported as 0.99 % ID/g and the “Radioactive concentration per unit weight in brain” value ([7]; after 30 min.) is reported as 0.20 % ID/g. The “Radioactive concentration per unit weight in brain” value ([7]; after 60 min.) was 0.08 % ID/g and the logPoctanol value [8] was 2.1.
For `CN(C)c1ccc(/C=C/c2ccc(I)cc2)cc1` [m-I-SB, (E)-4-dimethylamino-4′-iodostilbene], the transfer into brain [5] is listed as “transferred into brain” and the “clearance from normal tissues” value [5] is listed as “insufficient in clearance from normal tissues”.
With “2-[4′-(3″-[^18F]fluoropropoxy)phenyl]-6-methoxyimidazo[1,2-a]pyridine [Compound 4]” the “accumulation of radioactivity on intracerebral amyloid” value [9] was “possesses a property of accumulating on intracerebral amyloid”, the “Radioactive concentration per unit weight in brain” value ([7]; after 2 min.) was 1.36 % ID/g and the “Radioactive concentration per unit weight in brain” value ([7]; after 5 min.) was 0.93 % ID/g. For the same compound, the “Radioactive concentration per unit weight in brain” value ([7]; after 30 min.) was 0.23 % ID/g, the “Radioactive concentration per unit weight in brain” value ([7]; after 60 min.) was 0.13 % ID/g and the logPoctanol value [8] was 1.8.
In the case of `CN(C)c1ccc(-c2nc3ccc(I)cc3s2)cc1` [TZDM, 6-iodo-2-[4′-(N,N-dimethylamino)phenyl]benzothiazole], the transfer into brain [5] is listed as “transferred into brain” and the “clearance from normal tissues” value [5] is listed as “insufficient in clearance from normal tissues”.
In the case of `FCCCOc1ccc(-c2cn3ccccc3n2)cc1` [Compound 3, 2-[4′-(3″-fluoropropoxy)phenyl]imidazo[1,2-a]pyridine], the chromatographic logP ([10]; read-out: logPHPLC value) is reported as 1.7, the Mutagenicity ([1]; TA100, with addition of S9mix) is reported as “Negative” and the Mutagenicity [1, 11] is reported as “Negative”. For the same compound, the Mutagenicity ([2]; TA98, with addition of S9mix) was “Negative”, the Mutagenicity [2, 12] was “Negative” and the IC50 [3] was 0.0366 µM. For the same compound, the Ames test judgment [4] was “negative”.
For `CN(C)c1ccc(-c2cn3cc(I)ccc3n2)cc1` [IMPY, 6-iodo-2-[4′-(N,N-dimethylamino)phenyl]imidazo[1,2-a]pyridine], the logPHPLC value [10] is listed as 2.1, the “clearance from normal tissues” value (amyloid) is listed as “rapid clearance from normal tissues” and the “transfer to brain and accumulation at amyloid after administration” value (amyloid) is listed as “transferring to brain and accumulating at amyloid”.
